This assay relates to CEM cells HIV-1 protection, formazan growth assay. The experiment in a line: NCI AIDS Antiviral Assay. Conditions: for IC50: measured here: growth of uninfected CEM cells. How it is done:
The ability of compounds to protect human CEM cells from HIV-1 infection is measured as a screen for new compounds capable of inhibiting the HIV virus. Five concentrations of drug were tested on uninfected and infected cells and cell growth was measured using a soluble formazan assay. […] Compounds that provided at least 50% protection were retested. Compounds that provided at least 50% protection on retest were listed as moderately active. Compounds that reproducibly provided 100% protection were listed as confirmed active. […] Note that the inability to provide protection could be due to toxicity.

Molecules are shown by their SMILES. Where “and” joins values, the source holds several entries; their conditions need not be identical. Identical values can stand only once. Calls of active or inactive are those of the source.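 Rule for the calls: active = compounds giving half or more protection of infected cells from virus-caused growth loss, again on retest; inactive = the rest.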 Where a SMILES comes first, the peptide text is derived from it. The star is where a group is joined. Cbz = O=C(OCc1ccccc1)*; Bn = c1ccc(C*)cc1

For orientation: EC50 means the concentration that produces a half-maximal response. In general, IC50 refers to the concentration that inhibits the measured activity by half. Higher therefore signals lower potency. With `CCOc1ccc(N=Nc2ccc(/C=C/c3ccc(N=Nc4ccc(OCC)cc4)cc3S(=O)(=O)O)c(S(=O)(=O)O)c2)cc1`, the EC50 is 30.2 µM; the concentration for half-maximal inhibition (IC50) was > 200 µM and 195 µM.
Take `CCOC(=O)/C(C=Nc1c(C)n(C)n(-c2ccccc2)c1=O)=C(/C)O`: the EC50 is above 200 µM and the concentration for half-maximal inhibition (IC50) was above 200 µM.
As for `COc1cc2c(cc1Oc1ccc(OC)c3c1CC1c4c(cc(OC)c(OC)c4-3)CCN1C)CC1c3c(cc(OC)c(OC)c3-2)CCN1C` (stereo not given), the result was inactive.
In the case of `COC1=NC2=CC(=O)c3c(c(O)c(C)c4c3C(=O)C(C)(O/C=C/C(OC)C(C)C(OC(C)=O)C(C)C(O)C(C)C(O)C(C)/C=C/C=C\1C)O4)C2=O` (stereo not given), the EC50 is above 200 µM and the half-inhibitory concentration (IC50) was found to be 33.1 µM.
Take `CC1(C)CC(=O)C(/C=N/C(N)=S)=C(O)C1`: the EC50 is above 200 µM and the 50% inhibitory concentration (IC50) is above 200 µM.
Take `C/C(CC(=O)Nc1ccc([N+](=O)[O-])cc1)=N/N=C(N)N`: the EC50 was above 67.6 µM and the IC50 is above 67.6 µM.
For `CN1/C(=C/C=C/C=C/C=C2C(=O)c3ccccc3C2=O)C(C)(C)c2ccccc21`, the 50% effective concentration (EC50) was 120 µM and the half-maximal inhibitory concentration (IC50) was 151 µM.
Take `CC(C(=O)NCCNC(=O)CCCC(=O)N(C)O)C(=O)NCCNC(=O)CCCC(=O)N(C)O`: the EC50 is above 200 µM and the IC50 is above 200 µM.
Turning to `CC(=O)N(C(=O)CC(=O)NNCc1ccccc1Cl)c1ccc(Cl)cc1`, the EC50 is above 200 µM and the concentration for half-maximal inhibition (IC50) is above 200 µM.
For the compound `CCCCCCCCCCCC(=O)OCCOCCOCCOCCOCCOCc1ccc(OC)cc1`, the result was inactive.
Consider `C/C=C/C1C=Cc2ccccc2C1(C)C1=NC(C)(C)CO1` (stereo not given), for which the EC50 is above 25.7 µM and the half-inhibitory concentration (IC50) was above 25.7 µM.
Regarding `Cn1ccnc1CCc1ccc(Cl)cc1Cl`, the EC50 is above 708 µM and the IC50 amounted to 70.8 µM.
On to `CCCCCC[C@@H]1CCC2C(CO)[C@@H](O)CC[C@@H]2C1` (stereo not given in full), for which the EC50 is above 37.2 µM and the IC50 worked out at 28.2 µM.
On to `CC1(C(=O)O)CCOc2ccccc21` (stereo not given), for which the outcome was inactive.
With `CCc1oc2ccccc2c1C(=O)c1ccc(O)cc1`, the EC50 was above 324 µM and the 50% inhibitory concentration (IC50) was found to be 53.7 µM.
With `COc1cc2oc3ccccc3c(=O)c2cc1CSc1ccccc1N`, the EC50 is above 14.5 µM and the IC50 turned out to be 11 µM.
The like results for `[O-][n+]1cc(SCc2ccccc2)ncc1SCc1ccccc1` were, in that order, above 200 µM and above 200 µM.
`Clc1ccc(CNc2nc(Cl)c3[nH]cnc3n2)cc1Cl`: the EC50 is above 200 µM and the half-inhibitory concentration (IC50) is 22.9 µM.
The like results for `CC1=C(C(=O)CC(=O)C(=O)Nc2cc(C)ccc2C)Sc2ccccc2N1` were, in that order, above 10 µM and above 10 µM.
As to `CC(=O)/C(=C/c1ccc(Br)cc1)C(=O)c1ccccc1`, the outcome was inactive.
For the compound `CCO/C(O)=c1/s/c(=C(\C#N)c2nc3ccccc3[nH]2)n(-c2ccccc2)c1=N`, the EC50 was above 17.8 µM and the IC50 stood at 15.1 µM.
In the case of `CCC1(c2ccc3ccccc3c2)Oc2ccccc2-n2cccc2C1=O` (stereo not given), the half-maximal effective concentration (EC50) is 1.17 µM and the IC50 worked out at 91.2 µM.
In the case of `CNC(=O)C(CC(C)C)NC(=O)CNC(=O)C(Cc1ccc(OCc2ccccc2)cc1)NC(=O)C(COCc1ccccc1)NC(C)=O` (stereo not given) (Ac-S(Bn)Y(Bn)GL-NHMe; configuration not given here), the EC50 was above 200 µM and the IC50 stood at 37.2 µM.
As for `CC1N=C(c2ccccn2)C(c2ccccn2)=NC1c1ccccc1` (stereo not given), the EC50 was above 79.4 µM and the half-maximal inhibitory concentration (IC50) is above 79.4 µM.
`Nc1ccn(CC2OCC(CO)O2)c(=O)n1` (stereo not given): the EC50 is above 3470 µM; the IC50 was 2950 µM and 3020 µM.
On to `O=C1c2ccccc2C(=O)N1CCc1ncc[nH]1`, for which the EC50 was above 200 µM and the concentration for half-maximal inhibition (IC50) was above 200 µM.
For `C(=C\c1ccccc1)/COc1ccccc1C(N1CCOCC1)n1nc2ccccc2n1` (stereo not given), the EC50 was above 200 µM and the IC50 turned out to be 6.76 µM.
For the compound `C=C[C@@H](C)[C@]1(C(=O)OC)CCCC12OCCO2`, the EC50 is above 282 µM and the IC50 is above 282 µM.
For the compound `O=C1NC2(O)C(=O)c3ccccc3C2(O)N1` (stereo not given), the EC50 was above 1120 µM and the IC50 is above 1120 µM.
Take `CCC[n+]1nc2ccccc2c(=Nc2ccccc2[N+](=O)[O-])[n-]1`: the EC50 was above 23.4 µM and the half-maximal inhibitory concentration (IC50) is above 23.4 µM.
Regarding `[Co].[NH-]CC[NH-].[NH-]CC[NH-].[NH-]CC[NH-]`, the EC50 was above 200 µM and the concentration for half-maximal inhibition (IC50) is above 200 µM.
For the compound `CS1(=O)=N/C(=N\C(=O)Nc2ccccc2)c2ccccc21` (stereo not given), the outcome was inactive.
As to `CC(C)CN1CC(=O)N2CCCC(C)N2C(=O)C1` (stereo not given), the EC50 was above 200 µM and the half-inhibitory concentration (IC50) was above 200 µM.
With `CC1C(c2ccc3c(c2)OCO3)c2cc3c(cc2OC1N1CCOCC1)OCO3` (stereo not given), the EC50 is above 200 µM and the IC50 was determined as 10.7 µM.
`O=C(CSC1=NNC2(C(=O)N1)c1ccccc1-c1ccccc12)NC(=S)Nc1ccccc1`: the EC50 is above 200 µM and the half-inhibitory concentration (IC50) stood at 25.7 µM.
As to `O=[N+]([O-])c1ccccc1S(=O)(=O)Oc1ccc(Cl)cc1`, the outcome was active.
For the compound `COC1CC2CCC(C)[C@](O)(O2)C(=O)C(=O)N2CCCCC2C(=O)OC(C(C)CC2CCC(O)C(OC)C2)CC(=O)C(C)C=C(C)C(OC(=O)CN(C)C)C(OC)C(=O)C(C)CC(C)/C=C/C=C/C=C\1C` (stereo not given in full), the EC50 is above 200 µM and the concentration for half-maximal inhibition (IC50) was determined as 7.24 µM.
Take `CCC(CCNC(=O)c1ccccc1)(CCNC(=O)c1ccccc1)[N+](=O)[O-]`: the EC50 is above 200 µM and the IC50 is above 200 µM.
For `COc1ccc(CNc2nc3cc(C(F)(F)F)ccc3nc2C)cc1OC`, the EC50 was above 19.1 µM and the IC50 was 14.5 µM.
Regarding `O=c1c(O)c(O)c1=O`, the result was inactive.
As for `OCCCN(Cc1ccccc1)CC(O)c1ccc(OCc2ccccc2)c(OCc2ccccc2)c1` (stereo not given), the EC50 is above 200 µM and the IC50 came out at 9.55 µM.
Consider `COc1cc2c(cc1O)C1C(O)C(O)C=C3CCN(C2)C31` (stereo not given), for which the outcome was inactive.
Regarding `O=c1c2ccccc2oc2cc(Br)ccc12`, the EC50 was above 26.3 µM and the IC50 was above 26.3 µM.
As for `CC(C)S(=O)(=O)c1s[nH]c(=O)c1-c1ccccc1`, the EC50 was above 178 µM and the IC50 is above 178 µM.
In the case of `Cc1ccccc1-n1c(C)nc2ccccc2c1=O`, the EC50 was above 269 µM and the concentration for half-maximal inhibition (IC50) was above 269 µM.
`CC1C(=O)OC2C=CC3(C)C(=O)OC4OC5(c6ccoc6)CC1(O)C2(C)C43O5` (stereo not given): the EC50 is above 200 µM and the IC50 is above 200 µM.
For `CC(C)=CC(=O)c1c(C(=O)O)nc2ccccc2[n+]1[O-]`, the outcome was inactive.
Consider `CNP1(NC)=NP(NC)(NC)=NP(NC)(NC)=NP(NC)(NC)=N1`, for which the EC50 was above 3.47 µM and the half-maximal inhibitory concentration (IC50) was above 3.47 µM.
As for `CNC(=S)SSSSC(=S)NC`, the result was inactive.
Consider `COC(=O)/C([Se]c1c(C)cc(C)cc1C)=C(\[Se]c1c(C)cc(C)cc1C)C(=O)OC`, for which the result was inactive.
Take `CC1=NNC(=O)C1C1CC(c2c[nH]c3ccccc23)=NNC1=S` (stereo not given): the EC50 was above 100 µM and the IC50 was above 100 µM.
As to `Cc1ccc(C2(O)c3ccccc3N=NN2C)cc1` (stereo not given), the EC50 was above 269 µM and the IC50 stood at 105 µM.
With `COC(=O)C1(O)c2ccccc2N=C2C(=O)c3ccccc3N21` (stereo not given), the EC50 was above 200 µM and the IC50 was above 200 µM.
In the case of `C[C@H](CCC(=O)O)[C@H]1CC[C@H]2[C@@H]3[C@H](O)[C@H](O)[C@@H]4C[C@H](O)CC[C@]4(C)[C@H]3CC[C@]12C`, the EC50 was above 200 µM and the IC50 was determined as 72.4 µM.
For `O=C1CS(=O)(=O)C(c2ccccc2F)N1N1C(=O)CS(=O)(=O)C1c1ccccc1F` (stereo not given), the EC50 is above 151 µM and the IC50 is above 151 µM.
Consider `O=C(O)c1ccc(N=Nc2ccc(CCc3ccc(N=Nc4ccc(C(=O)O)cc4O)cc3S(=O)(=O)O)c(S(=O)(=O)O)c2)c(O)c1`, for which the EC50 was 19.5 µM and the 50% inhibitory concentration (IC50) came out at 234 µM.
Consider `CCOC(=O)CCC(NC(=O)OCc1ccccc1)C(=O)NC(CCC(=O)OCC)C(=O)OCC` (stereo not given) (Cbz-Glu(OEt)-Glu(OEt)-OEt; configuration not given here), for which the EC50 was above 200 µM and the IC50 was above 200 µM.
In the case of `CC(Nc1cccc(Cl)c1)c1ccncc1` (stereo not given), the EC50 is above 200 µM and the IC50 came out at 95.5 µM.
In the same order, the values of `CS(=O)(=O)NC12CCC(c3ccccc31)c1ccccc12` are above 200 µM and above 200 µM.
On to `CCN(CC)C(=S)SS(=O)(=O)c1ccc([N+](=O)[O-])cc1`, for which the EC50 was above 200 µM and the IC50 turned out to be 19.1 µM.
`CCOC(=O)c1c(/C=N\Nc2ccccc2)nc2ccccc2c1-c1ccccc1`: the EC50 was above 64.6 µM and the concentration for half-maximal inhibition (IC50) was 26.3 µM.
For the compound `CCc1c(Cc2[nH]c(Cc3[nH]c(C=O)c(C)c3CC)c(CC)c2CC)[nH]c(C=O)c1C`, the EC50 was above 200 µM and the IC50 was above 200 µM.
Consider `CCOC(=O)c1cn(CC)c2ccc3ccsc3c2c1=O`, for which the outcome was inactive.
Regarding `Clc1cc(Br)c2c3c(c(Br)cc(Cl)c13)C(Br)=C2Br`, the EC50 is above 200 µM and the IC50 was found to be 20 µM.
Regarding `Cc1cc(-c2cccc3ccccc23)c(C#N)c(=S)n1C1OC(CO)C(O)C(O)C1O` (stereo not given), the EC50 was above 200 µM and the concentration for half-maximal inhibition (IC50) was 66.1 µM.
As for `COC(=O)c1ccc(CSc2ccc(Cl)cc2)cc1`, the EC50 was above 4.9 µM and the IC50 amounted to 3.55 µM.
`C=C(Br)CNC(=O)Nc1ccc(Cl)c(Cl)c1`: the EC50 was above 200 µM and the IC50 amounted to 21.9 µM.
In the case of `Cc1cn(C2CC(N=[N+]=[N-])C(COC(=O)C(O)[C@@]3(O)CC[C@H]4[C@@H]5CCC6=CC(=O)C=C[C@]6(C)[C@H]5[C@@H](O)C[C@@]43C)O2)c(=O)[nH]c1=O` (stereo not given in full), the 50% effective concentration (EC50) was 0.708 µM and the half-maximal inhibitory concentration (IC50) was above 200 µM.
Regarding `Cc1ccc(SSCCCS(=O)O)cc1`, the outcome was inactive.

These data come from PubChem BioAssay AID179 (DTP/NCI, 2004).
